In ChEMBL document CHEMBL1201862, “PubChem BioAssay data set” (2004):
Calls of active or inactive are those of the source.

Assays:
[1] = target: T1, Sentrin-specific protease 1 (Homo sapiens, UniProt Q9P0U3); experiment: potency of human SENP1 inhibitors, dose response, biochemical, kinetic FRET (AID 651697); assay type: functional; settings: read-out: IC50_Mean
T1 sequence (Q9P0U3 whole entry): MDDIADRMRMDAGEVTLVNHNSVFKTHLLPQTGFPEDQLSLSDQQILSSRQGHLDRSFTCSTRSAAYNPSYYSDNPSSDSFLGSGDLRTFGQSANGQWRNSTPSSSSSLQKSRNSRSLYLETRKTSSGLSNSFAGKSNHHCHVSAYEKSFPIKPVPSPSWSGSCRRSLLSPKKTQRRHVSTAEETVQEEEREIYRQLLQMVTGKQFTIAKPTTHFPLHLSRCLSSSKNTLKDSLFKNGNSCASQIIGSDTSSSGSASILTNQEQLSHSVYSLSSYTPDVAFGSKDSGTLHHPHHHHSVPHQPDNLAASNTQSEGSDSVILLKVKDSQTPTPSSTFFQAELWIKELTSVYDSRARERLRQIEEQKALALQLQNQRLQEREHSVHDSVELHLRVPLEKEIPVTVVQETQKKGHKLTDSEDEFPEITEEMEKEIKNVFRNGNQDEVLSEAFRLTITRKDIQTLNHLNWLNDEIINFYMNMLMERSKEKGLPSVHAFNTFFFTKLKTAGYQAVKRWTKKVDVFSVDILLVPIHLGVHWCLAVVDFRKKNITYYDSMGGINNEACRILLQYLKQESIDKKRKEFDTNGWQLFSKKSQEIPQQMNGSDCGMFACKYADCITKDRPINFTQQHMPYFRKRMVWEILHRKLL

[2] = target: Protein Rev (Human immunodeficiency virus type 1 group M subtype B (isolate HXB2)(HIV-1), UniProt P04618); experiment: inhibitors of Rev binding to RRE RNA, dose response, biochemical, fluorescence polarization, HIV-1 (AID 434976); design: species or system Human immunodeficiency virus 1
Sequence of Protein Rev (P04618 whole entry): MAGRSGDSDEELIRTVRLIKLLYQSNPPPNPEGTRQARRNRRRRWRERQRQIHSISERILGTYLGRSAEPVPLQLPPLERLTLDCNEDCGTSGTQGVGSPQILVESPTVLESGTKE

[3] = target: T2, Polyadenylate-binding protein 1 (Homo sapiens, UniProt P11940); experiment: PABP1 MLLE–PAM2 binding inhibitor potency, dose response, biochemical, fluorescence polarization, FITC-PAM2 peptide (AID 602259); assay type: functional; settings: read-out: IC50_Mean
T2 sequence (P11940 whole entry): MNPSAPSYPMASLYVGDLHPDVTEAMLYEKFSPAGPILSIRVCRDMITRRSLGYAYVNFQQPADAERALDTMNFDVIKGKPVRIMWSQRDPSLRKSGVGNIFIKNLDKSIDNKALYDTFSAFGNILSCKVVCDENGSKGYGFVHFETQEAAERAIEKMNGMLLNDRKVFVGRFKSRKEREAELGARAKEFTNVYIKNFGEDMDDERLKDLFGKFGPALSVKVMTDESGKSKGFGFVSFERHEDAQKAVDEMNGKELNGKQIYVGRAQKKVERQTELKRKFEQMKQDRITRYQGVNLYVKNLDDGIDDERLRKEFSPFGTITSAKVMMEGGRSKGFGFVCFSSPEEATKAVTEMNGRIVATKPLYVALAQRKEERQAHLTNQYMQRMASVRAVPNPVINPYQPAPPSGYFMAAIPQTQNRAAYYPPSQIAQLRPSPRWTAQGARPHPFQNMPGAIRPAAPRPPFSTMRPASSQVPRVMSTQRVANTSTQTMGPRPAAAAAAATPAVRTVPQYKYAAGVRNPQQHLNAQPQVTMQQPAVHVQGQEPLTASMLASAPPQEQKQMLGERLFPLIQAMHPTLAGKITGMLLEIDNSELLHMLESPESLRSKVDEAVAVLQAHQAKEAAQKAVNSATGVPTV

[4] = target: T3, Corticotropin-releasing factor receptor 2/Corticotropin-releasing factor-binding protein (Homo sapiens, UniProt P24387+Q13324); experiment: activators of CRF receptor 2 with binding protein – uHTS hits, confirmation (AID 602473); assay type: functional; settings: read-out: EC50_Mean
T3 sequence (Q13324 whole entry): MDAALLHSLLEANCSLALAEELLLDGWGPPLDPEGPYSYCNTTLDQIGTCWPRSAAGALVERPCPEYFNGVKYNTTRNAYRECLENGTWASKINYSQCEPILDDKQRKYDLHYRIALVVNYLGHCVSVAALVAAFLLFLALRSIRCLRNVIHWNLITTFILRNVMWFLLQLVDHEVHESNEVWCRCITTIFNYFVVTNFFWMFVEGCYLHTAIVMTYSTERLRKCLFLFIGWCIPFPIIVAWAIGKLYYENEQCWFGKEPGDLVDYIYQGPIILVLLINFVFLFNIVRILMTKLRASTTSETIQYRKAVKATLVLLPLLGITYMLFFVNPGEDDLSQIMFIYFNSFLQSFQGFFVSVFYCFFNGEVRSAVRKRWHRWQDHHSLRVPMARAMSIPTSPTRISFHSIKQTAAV
T3 sequence (P24387 whole entry): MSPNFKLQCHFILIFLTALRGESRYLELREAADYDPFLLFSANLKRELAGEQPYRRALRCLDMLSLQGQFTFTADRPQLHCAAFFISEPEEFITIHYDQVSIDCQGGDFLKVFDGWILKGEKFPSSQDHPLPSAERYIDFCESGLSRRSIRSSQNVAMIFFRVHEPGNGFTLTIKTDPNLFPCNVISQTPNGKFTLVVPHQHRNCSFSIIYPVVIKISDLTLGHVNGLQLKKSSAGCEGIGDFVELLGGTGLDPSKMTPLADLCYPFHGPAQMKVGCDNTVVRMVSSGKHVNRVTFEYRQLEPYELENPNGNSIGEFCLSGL

[5] = target: T2, Polyadenylate-binding protein 1; experiment: PABP1 MLLE–PAM2 interaction inhibitors, dose response, miRNA deadenylation inhibitor project, biochemical, fluorescence polarization, Cy5-PAM2 peptide, secondary (AID 602260); assay type: functional; settings: read-out: IC50_Mean
[6] = target: T1, Sentrin-specific protease 1; experiment: Dose response confirmation of small molecule inhibitors of the catalytic domain of the SUMO protease, SENP1 in a FRET assay.; assay type: functional; settings: read-out: IC50_Mean
[7] = target: Female germline-specific tumor suppressor gld-1 (Caenorhabditis elegans, UniProt Q17339); experiment: inhibitors of GLD-1 binding to TGE RNA, dose response, biochemical, fluorescence polarization, C. elegans (AID 2802);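 also: fluorescence polarization of labeled TGE RNA bound by purified gld-1 protein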
Sequence of Female germline-specific tumor suppressor gld-1 (Q17339 whole entry): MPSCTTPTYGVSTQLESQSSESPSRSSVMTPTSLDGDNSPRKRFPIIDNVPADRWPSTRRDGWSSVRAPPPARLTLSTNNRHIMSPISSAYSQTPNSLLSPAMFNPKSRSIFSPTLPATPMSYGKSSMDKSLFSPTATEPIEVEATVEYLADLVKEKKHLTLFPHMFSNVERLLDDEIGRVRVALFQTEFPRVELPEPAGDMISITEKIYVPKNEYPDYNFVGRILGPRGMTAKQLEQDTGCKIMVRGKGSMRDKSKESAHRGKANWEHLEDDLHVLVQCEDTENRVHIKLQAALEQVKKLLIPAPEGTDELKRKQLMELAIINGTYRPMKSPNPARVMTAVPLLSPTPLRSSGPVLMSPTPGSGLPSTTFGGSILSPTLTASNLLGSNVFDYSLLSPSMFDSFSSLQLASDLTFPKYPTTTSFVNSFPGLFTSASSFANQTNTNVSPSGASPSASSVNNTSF

[8] = target: Voltage-dependent T-type calcium channel subunit alpha-1H (Homo sapiens, UniProt O95180); experiment: Cav3.2 T-type channel inhibitors, cell-based, synthetic library set 1, calcium flux (AID 493022); assay type: functional
Sequence of Voltage-dependent T-type calcium channel subunit alpha-1H (O95180 whole entry): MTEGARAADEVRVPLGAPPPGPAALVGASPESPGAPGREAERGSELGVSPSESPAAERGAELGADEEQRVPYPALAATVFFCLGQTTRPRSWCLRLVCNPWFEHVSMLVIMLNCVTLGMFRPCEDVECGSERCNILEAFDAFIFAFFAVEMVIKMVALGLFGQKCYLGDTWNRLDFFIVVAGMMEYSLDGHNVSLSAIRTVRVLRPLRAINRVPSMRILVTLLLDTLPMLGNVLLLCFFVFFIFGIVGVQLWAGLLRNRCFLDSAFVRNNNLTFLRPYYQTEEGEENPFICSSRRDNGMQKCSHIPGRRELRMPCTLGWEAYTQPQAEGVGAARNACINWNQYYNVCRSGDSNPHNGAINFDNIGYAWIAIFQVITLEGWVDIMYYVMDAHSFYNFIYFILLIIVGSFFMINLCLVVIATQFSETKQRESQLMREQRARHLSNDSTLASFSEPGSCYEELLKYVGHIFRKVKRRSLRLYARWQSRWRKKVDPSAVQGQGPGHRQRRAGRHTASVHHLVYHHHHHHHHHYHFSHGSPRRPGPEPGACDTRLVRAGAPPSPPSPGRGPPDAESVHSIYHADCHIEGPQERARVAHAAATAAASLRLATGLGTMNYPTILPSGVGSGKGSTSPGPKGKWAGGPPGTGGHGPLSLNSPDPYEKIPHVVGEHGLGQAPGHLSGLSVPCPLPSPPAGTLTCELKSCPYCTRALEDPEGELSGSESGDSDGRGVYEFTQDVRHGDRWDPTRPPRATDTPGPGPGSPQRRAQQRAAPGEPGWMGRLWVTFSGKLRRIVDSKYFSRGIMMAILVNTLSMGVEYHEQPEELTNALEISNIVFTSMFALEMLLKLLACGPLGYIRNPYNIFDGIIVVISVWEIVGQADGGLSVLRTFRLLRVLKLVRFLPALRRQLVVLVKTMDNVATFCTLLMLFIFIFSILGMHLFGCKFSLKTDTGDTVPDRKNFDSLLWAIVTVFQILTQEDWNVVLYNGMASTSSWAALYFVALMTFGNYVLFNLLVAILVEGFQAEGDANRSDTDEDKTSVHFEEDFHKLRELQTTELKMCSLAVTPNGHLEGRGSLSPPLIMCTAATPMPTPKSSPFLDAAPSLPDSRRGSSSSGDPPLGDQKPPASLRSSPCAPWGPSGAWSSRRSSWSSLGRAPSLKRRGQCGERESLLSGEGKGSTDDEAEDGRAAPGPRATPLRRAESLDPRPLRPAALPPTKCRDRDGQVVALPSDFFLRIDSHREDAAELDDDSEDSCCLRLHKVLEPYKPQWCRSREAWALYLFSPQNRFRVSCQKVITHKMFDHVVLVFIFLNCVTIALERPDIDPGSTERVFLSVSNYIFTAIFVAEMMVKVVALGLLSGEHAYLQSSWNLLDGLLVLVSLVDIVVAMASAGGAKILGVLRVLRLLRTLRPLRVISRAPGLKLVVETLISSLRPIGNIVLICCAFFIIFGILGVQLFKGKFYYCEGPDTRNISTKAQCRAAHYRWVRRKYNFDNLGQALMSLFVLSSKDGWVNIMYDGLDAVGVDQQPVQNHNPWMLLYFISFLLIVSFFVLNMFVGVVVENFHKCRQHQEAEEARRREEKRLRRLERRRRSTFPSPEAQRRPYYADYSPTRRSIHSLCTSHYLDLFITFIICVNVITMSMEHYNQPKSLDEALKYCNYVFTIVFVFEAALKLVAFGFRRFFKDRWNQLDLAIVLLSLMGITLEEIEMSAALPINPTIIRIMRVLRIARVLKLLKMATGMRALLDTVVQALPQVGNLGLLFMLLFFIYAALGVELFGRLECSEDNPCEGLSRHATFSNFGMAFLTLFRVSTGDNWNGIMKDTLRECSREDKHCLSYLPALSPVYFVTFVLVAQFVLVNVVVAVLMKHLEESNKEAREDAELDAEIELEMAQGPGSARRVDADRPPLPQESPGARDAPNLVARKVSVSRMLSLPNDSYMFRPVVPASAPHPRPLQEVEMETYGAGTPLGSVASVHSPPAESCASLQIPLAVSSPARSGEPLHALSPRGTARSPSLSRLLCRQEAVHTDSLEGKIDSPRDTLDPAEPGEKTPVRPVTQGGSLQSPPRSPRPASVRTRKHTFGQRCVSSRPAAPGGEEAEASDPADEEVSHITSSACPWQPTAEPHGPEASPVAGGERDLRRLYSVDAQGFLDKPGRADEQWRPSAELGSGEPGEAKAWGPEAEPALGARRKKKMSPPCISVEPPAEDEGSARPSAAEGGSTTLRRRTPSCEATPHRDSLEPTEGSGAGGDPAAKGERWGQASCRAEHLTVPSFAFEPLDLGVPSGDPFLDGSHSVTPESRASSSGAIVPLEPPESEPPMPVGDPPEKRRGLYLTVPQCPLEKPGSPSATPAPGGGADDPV

[9] = target: Hexokinase (Trypanosoma brucei, UniProt Q38C41); experiment: Confirmation assay for inhibitors of Trypanosoma brucei hexokinase 1-Analogue-first series. [Related pubchem assays (depositor defined):AID1430, AID1632, AID2516, AID2560, AID2579, AID2600, AID449725, AID492951]; assay type: functional
Sequence of Hexokinase (Q38C41 whole entry): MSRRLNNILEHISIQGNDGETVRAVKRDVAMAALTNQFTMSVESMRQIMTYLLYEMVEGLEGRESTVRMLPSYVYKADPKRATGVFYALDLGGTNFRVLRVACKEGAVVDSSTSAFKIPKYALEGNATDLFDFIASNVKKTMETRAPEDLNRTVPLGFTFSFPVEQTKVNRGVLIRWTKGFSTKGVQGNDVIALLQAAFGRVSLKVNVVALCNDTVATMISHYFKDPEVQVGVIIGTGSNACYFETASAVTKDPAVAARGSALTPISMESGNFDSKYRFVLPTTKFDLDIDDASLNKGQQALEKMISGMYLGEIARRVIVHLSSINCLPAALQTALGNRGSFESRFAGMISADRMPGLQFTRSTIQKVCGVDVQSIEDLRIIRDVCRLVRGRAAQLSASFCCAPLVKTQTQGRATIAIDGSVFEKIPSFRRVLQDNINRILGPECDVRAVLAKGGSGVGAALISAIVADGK

[10] = target: Delta-type opioid receptor (Homo sapiens, UniProt P41143); experiment: SAR Analysis of Antagonists of the DOR Receptor using an Image-Based Assay - Set 3. [Related pubchem assays (depositor defined):AID1777, AID1785]; assay type: functional;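 also: U2OS cells expressing DOR1 and beta-arrestin GFP stimulated with 100 nM SNC80; imaging of GFP-tagged beta-arrestin moving into spots after receptor activation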
Sequence of Delta-type opioid receptor (P41143 whole entry): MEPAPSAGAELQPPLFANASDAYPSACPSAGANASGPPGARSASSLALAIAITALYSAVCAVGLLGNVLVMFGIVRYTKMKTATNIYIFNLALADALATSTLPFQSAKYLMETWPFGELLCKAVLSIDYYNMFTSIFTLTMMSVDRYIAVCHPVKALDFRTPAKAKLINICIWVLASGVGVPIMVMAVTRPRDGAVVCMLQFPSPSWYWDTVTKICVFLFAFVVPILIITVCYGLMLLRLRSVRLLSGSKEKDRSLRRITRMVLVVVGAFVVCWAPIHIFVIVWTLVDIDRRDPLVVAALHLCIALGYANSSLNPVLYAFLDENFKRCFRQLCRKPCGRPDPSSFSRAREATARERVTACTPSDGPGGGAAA

[11] = target: Mu-type opioid receptor (Homo sapiens, UniProt P35372); experiment: SAR Analysis of Antagonists of the MOR Receptor using an Image-Based Assay - Set 3. [Related pubchem assays (depositor defined):AID1777, AID1785, AID1786, AID1966, AID2133, AID2136, AID2284, AID2285, AID2420]; assay type: functional
Sequence of Mu-type opioid receptor (P35372 whole entry): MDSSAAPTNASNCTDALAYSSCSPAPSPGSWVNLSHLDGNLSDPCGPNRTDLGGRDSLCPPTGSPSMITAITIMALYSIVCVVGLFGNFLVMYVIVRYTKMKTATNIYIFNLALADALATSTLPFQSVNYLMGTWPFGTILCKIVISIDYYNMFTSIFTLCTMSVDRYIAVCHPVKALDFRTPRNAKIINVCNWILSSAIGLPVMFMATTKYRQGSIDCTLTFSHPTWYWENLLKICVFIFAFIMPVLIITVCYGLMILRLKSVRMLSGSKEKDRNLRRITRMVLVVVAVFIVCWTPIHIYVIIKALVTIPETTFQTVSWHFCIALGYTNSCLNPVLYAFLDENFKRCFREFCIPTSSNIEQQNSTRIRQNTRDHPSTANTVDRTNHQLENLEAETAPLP

[12] = target: Melanin-concentrating hormone receptor 1 (Homo sapiens, UniProt Q99705); experiment: Late-stage fluorescence-based counterscreen for antagonists of the G-protein coupled receptor 7 (GPR7): cell-based dose response assay to identify antagonists of the melanin-concentrating hormone receptor 1 (MCHR1). [Related pubchem assays (depositor defined):AID1861, AID1880, AID1952, AID2148, AID2251, AID2257, AID485339]; assay type: functional;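 also: stimulated with 30 nM MCH peptide agonist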
[13] = target: T4, Neuropeptides B/W receptor type 1 (Homo sapiens, UniProt P48145); experiment: GPR7 antagonist potency, late-stage follow-up, cell-based, fluorescence, dose response (AID 463251); assay type: functional
T4 sequence (P48145 whole entry): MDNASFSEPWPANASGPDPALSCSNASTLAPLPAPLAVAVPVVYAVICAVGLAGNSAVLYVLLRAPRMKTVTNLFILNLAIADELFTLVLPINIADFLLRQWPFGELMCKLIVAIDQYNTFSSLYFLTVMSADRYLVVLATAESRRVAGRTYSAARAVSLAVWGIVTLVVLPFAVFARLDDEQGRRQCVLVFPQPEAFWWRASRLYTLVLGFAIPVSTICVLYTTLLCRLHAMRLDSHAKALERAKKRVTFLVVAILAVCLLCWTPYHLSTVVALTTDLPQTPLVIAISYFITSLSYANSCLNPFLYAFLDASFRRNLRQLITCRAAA

[14] = target: Nonstructural protein 1 (Influenza A virus, UniProt Q194T2); assay type: functional, Influenza A virus (A/California/07/2009(H1N1))
Sequence of Nonstructural protein 1 (Q194T2 whole entry): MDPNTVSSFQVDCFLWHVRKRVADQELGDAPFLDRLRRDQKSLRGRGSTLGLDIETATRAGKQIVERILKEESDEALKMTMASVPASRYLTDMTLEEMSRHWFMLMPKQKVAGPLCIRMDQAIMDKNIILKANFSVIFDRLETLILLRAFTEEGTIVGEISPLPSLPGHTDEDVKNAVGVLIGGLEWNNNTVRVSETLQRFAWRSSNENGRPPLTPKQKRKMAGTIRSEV

In the case of `O=C1C2=C(SCCS2)C(=O)N1CCCO`, the IC50 [1] is reported as 20.5 µM (inactive), the IC50 [2] is reported as > 75.4 µM (not active) and the IC50 [3] is reported as 28 µM (inactive). For the same compound, the EC50 [4] was > 53 µM (inactive), the IC50 [5] was > 66 µM (inactive) and the IC50 [6] was 35.2 µM (inactive). For the same compound, the IC50 [7] was 4.07 µM (active).

With `O=C(COc1ccccc1Cl)Nc1nnc(-c2ccc3ccccc3c2)o1` the EC50 [8] was 4.8 µM (active).

For `Cc1ccccc1N1Cc2ccccc2C1=O`, the IC50 [9] was > 25 µM (inactive).

With `COc1ccc(N2CCN(CCCNC(=O)Cn3c(=O)c4cccn4c4c(C)ccnc43)CC2)cc1` the IC50 [10] was > 32 µM (inactive) and the IC50 [11] was > 32 µM (inactive).

In the case of `Cc1cccc(CN2CCCCC2C(=O)N2CCN(c3ccc([N+](=O)[O-])cc3)CC2)c1` (centres undefined), the IC50 [12] is reported as 6.1 µM (active) and the IC50 [13] is reported as 10 µM (active).

`Nc1[nH]n(-c2ccccc2)c(=O)c1N=Nc1ccc2c(c1)OCCO2` was tested, and the IC50 [14] was 28.8 µM (active).
